Results reported in EP1551873B1, “AGONISTS AND ANTAGONISTS OF THE HUMAN ODORANT RECEPTOR OR17-4 AND USES THEREOF” (Symrise AG, priority 2002, dated 2004).

Columns and labels:
hOR17-4 = assay: Ca2+ imaging (Fura-2) of HEK293 cells transiently transfected with pOR17-4 (chimeric receptor); format: cell-based, human; settings: for Rezeptoraktivierung (Ca^2+-Antwort): single odorant about 500 µM, pOR17-4-transfected HEK293 cells; for Wirksamkeit (Rangordnung der Agonisten): ranking by amplitude normalised to ATP and by responding cells relative to Cyclamal ca. 5 mM
Description: Es wird vermutet, dass die Transmembrandomänen III-VI eine Bindungstasche zum Binden von Agonisten bilden (s. S. Firestein, Nature 413, 211-218 (2001)). Um diese Vermutung für den Rezeptor hOR17-4 zu überprüfen wurde ein für die vermuteten Transmembrandomänen III bis VI codierender Abschnitt der für hOR17-4 codierenden cDNA in einem Shuttle-Expressions-Vektor (pOLF-Express) kloniert. Der Expressionsvektor pOLF-Express umfasst die für die N- und C-terminalen Regionen von hOR17-40 codierenden DNA-Abschnitte (C. H. Wetzel et al., Journal of Neuroscience 19, 7426-7433 (1999)). Das resultierende chimäre Rezeptorprotein sollte die Agonistenspezifität des vollständigen Rezeptors hOR17-4 besitzen.
HEK293-Zellen wurden in MEM (Life Technologies, Gaithersburg, MD), das mit 10 % hitze-inaktiviertem fetalem Kälber-Serum angereichert war, in einem Inkubator bei 37 °C in einer Atmosphäre aus 95 % befeuchteter Luft und 5 % CO2 kultiviert. Semikonfluente Zellen wurden in 35 mm Gefäßen (Falcon) mittels Calciumphosphat-Präzipitation (Zufall et al., PNAS 90 (1993), 9335-9339) unter Verwendung jeweils des Plasmids pOR17-4 bzw. pOR17-4v transfiziert. Die Transfektionseffizienz - typischerweise 10 % - wurde histochemisch mit dem Reporterplasmid pCH110 (Pharmacia, Uppsala, Schweden) überprüft, das für β-Galactosidase codiert. Messungen wurden 48 bis 72 Stunden nach der Transfektion durchgeführt. Die Transfektionseffizienz kann mit einem für GFP, einem grün fluoreszierenden Protein, codierenden Reporterplasmid ebenfalls überprüft werden.
Die Rezeptor-Aktivierung in HEK293-Zellen führt zu einem vorübergehenden Anstieg der cytosolischen Ca^2+-Konzentration, die auf der Einzelzell-Ebene unter Verwendung des Ca^2+-sensitiven Farbstoffes Fura-2 (Fura-2 AM, Molecular Probes Europe BV, Leiden, Niederlande; Ladekonzentration 3-4 µg/ml; Ladezeit ca. 30 min) und ratiofluorometrischen Bildgebungstechniken (Imaging-Experimente) detektiert wurden.
Die Ca^2+-imaging-Experimente wurden auf dem Träger eines invertierten Zeiss-Mikroskopes durchgeführt, das für die ratiofluorometrische Bildgebung mit einer Xenon-Bogenlampe, einem Vielfach-Wellenlängen-Illuminations-System POLYCH-ROM II zur Anregung, einer gekühlten charge-coupled device (CCD)-Kamera und einer WinNT-basierten T.I.L.L.-Vision-Software zum Sammeln und raum- und zeitabhängigen Quantifizieren Ca^2+-abhängiger Fluoreszenz-Signale (F340/F380-Verhältnis) ausgestattet war. HEK293-Zellen wurden mit 32-facher, Spermazellen mit 63-facher Vergrößerung beobachtet.
HEK293- und Spermazellen wurden unter Verwendung eines speziellen Applikations-Systems, das es gestattete, vorübergehend alle Zellen im Blickfeld aus einem von sechs benutzergewählten Kapillarröhrchen zu überspülen, Geruchs- und/oder Wirkstoffen (Testlösungen) ausgesetzt. Der Wechsel zwischen den Testlösungen erfolgte nahezu sofort; auch trat im Wesentlichen keine Wirkungsverzögerung nach dem Wechsel auf, weil die Röhrchenspitzen zum optischen Feld eng benachbart waren. Zwischen den Applikationen von Testlösungen überspülte ein Pufferlösungsstrom kontinuierlich alle Zellen im Gefäß, um jedwede potentielle Hintergrund-Anreicherung von Testlösungen (Geruchs- bzw. Wirkstoffen) zu minimieren. Alle Lösungen wurden bei Raumtemperatur appliziert. Alle verwendeten Geruchsstoffe stammten von Dr. T. Gerke, Henkel KGaA, Düsseldorf, FRG, andere Wirkstoffe wurden von Sigma gekauft. Zur Zusammensetzung der Henkel 100-Mischung vergleiche C. H. Wetzel et al., Journal of Neuroscience 19, 7426-7433 (1999).
Alle auf die potentielle Aktivierung von hOR17-4 untersuchten Geruchsstoffe wurden wenigstens in drei verschiedenen Reihen von Transfektionsexperimenten getestet. […] Geruchsstoffe, die nicht in wenigstens 2 % aller HEK293-Zellen messbare Ca^2+-Konzentrationssteigerung auslösten, wurden nicht zu den hOR17-4-spezifischen Agonisten gezählt, ebenso diejenigen wenigen der untersuchten Komponenten, die ein unspezifisches Ca^2+-Signal in fast jeder Zelle hervorriefen. […]

hOR17-40 [1] = target: T1, hOR17-40 (Homo sapiens, UniProt P47881); assay: Ca2+ imaging of HEK293 cells transfected with pOR17-40; format: cell-based; settings: n=168
T1 construct: pOR17-40 (Ausschnitt) mit der vollständigen cDNA von hOR17-40; expressed in transfected cells; host or cells: HEK293, plasmid pOR17-40
T1 sequence (P47881 1-315): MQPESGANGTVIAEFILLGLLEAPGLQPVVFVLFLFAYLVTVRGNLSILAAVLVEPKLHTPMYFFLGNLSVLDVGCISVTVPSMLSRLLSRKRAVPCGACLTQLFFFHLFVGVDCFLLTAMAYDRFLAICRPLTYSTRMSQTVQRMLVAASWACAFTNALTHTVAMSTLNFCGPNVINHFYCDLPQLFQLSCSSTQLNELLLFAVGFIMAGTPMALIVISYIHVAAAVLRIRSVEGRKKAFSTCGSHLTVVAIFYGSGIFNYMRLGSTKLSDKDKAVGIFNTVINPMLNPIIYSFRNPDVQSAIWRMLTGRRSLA

hOR17-40 [2] = target: T1, hOR17-40; settings: literature (Wetzel et al. 1999), HEK293; cited from earlier work
[3] = system: olfaktorische Rezeptor OR5; settings: receptor expressed in E. coli; cited from earlier work
Spermien = assay: Signal transduction inhibitors on bourgeonal response of sperm (chemotaxis and swimming speed); format: cell-based, human; settings: inhibitor 50 µM, Bourgeonal 100 nM
Experimental: Gefrorene Samenproben von fünf gesunden Spendern wurden aus der California Cryobank (Los Angeles, CA, USA) erhalten und für Bioassays gemäß den World Health Organization-Richtlinien (World Health Organization: Laboratory for the examination of human serum and semen-cervical mucus interaction, Cambridge University Press (1993)) vorbereitet (vgl. vorheriges Beispiel und Beispiel 7). Bevor oder während die Spermien mit Bourgeonal (100 nM) behandelt wurden, wurden sie jeweils (a) mit Adenylatcyclase-Inhibitor (MDL-12,330A, 50 µM) und (b) mit einem Phospholipase C-Inhibitor (U73122, 50 µM) behandelt.

Ratten-I7-Rezeptor = target: T2, Ratten-I7-Rezeptor (Rattus norvegicus, UniProt P23270); settings: cited from earlier work
T2 sequence (P23270 1-327): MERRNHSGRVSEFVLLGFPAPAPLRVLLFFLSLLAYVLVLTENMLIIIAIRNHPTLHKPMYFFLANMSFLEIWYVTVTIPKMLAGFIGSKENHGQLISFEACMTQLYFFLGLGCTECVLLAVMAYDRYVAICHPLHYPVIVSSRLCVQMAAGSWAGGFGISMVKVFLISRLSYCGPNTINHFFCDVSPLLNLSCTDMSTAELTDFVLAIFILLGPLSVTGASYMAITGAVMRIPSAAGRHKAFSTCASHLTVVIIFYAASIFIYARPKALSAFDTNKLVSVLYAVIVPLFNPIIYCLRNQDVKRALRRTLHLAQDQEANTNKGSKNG

Molecule	Rezeptoraktivierung (Ca^2+-Antwort) (hOR17-4)	also measured
CC(CC=O)c1ccccc1 (centres unmarked) [3-PBA, 3-Phenylbutyraldehyd]	klaren Ca^2+-Antworten	eine Ca^2+-Reaktion nicht mehr auslösender Schwellenwert (hOR17-4): ~50 µM
CC(CCO)c1ccccc1 (centres unmarked) [3-Phenylbutylalkohol, reference compound]	aktivierten den Rezeptor nicht	
O=CCCc1ccccc1 [3-Phenylpropanal]	klaren Ca^2+-Antworten	
O=C(O)CCc1ccccc1 [3-Phenylpropionsäure, reference compound]	aktivierten den Rezeptor nicht	
O=CCCCc1ccccc1 [4-Phenylbutylaldehyd, 4-Phenylbutyraldehyd]	deutliche Ca^2+-Signale	
O=CCCCCc1ccccc1 [5-Phenylvaleraldehyd, reference compound]	keine messbare Antwort	
CC(C)(C)c1ccc(OCC=O)cc1 [(4-tert-Butylphenoxy)acetaldehyd, (4-tert-butylphenoxy)acetaldehyd]	erzeugte ein Ca^2+-Signal	
CC=Cc1ccc(OC)cc1 [Anethol, reference compound]	aktivierten den Rezeptor nicht	
O=Cc1ccccc1 [Benzaldehyd, reference compound]	keine messbare Antwort	
COc1ccc(CC(C)C=O)cc1 (centres unmarked) [Canthoxal]	klare Ca^2+-Antworten	Induktion einer Ca^2+-Konzentrationssteigerung (hOR17-4; agonist concentration reduced to 10^-6 M): zu einem gewissen Ausmaß; Wirksamkeit (Rangordnung der Agonisten) (hOR17-4): wirksamere Agonisten
O=CC=Cc1ccccc1 [Cinnamaldehyd, reference compound]	vollständig inaktiv	
CC(C=O)Cc1ccc(C(C)C)cc1 (centres unmarked) [Cyclamal]	Agonist identifiziert	Wirksamkeit (Rangordnung der Agonisten) (hOR17-4): nicht der wirksamste Agonist; Desensitisierung der Geruchsstoff-Antwort (hOR17-4; single application, most responsive cells, ATP response unchanged): vollständigen und langanhaltenden Desensitisierung
CCc1ccc(CC(C)(C)C=O)cc1 [Floralazon]	Fähigkeit der Substanzen, den Rezeptor zu aktivieren	
CC(C=O)Cc1ccc2c(c1)OCO2 (centres unmarked) [Helional, reference compound]	keiner Rezeptoraktivierung	vorübergehende Erhöhung des cytosolischen Ca^2+-Spiegels, Anteil aller getesteten Zellen (hOR17-40 [1]): 2 - 5%; Agonist (Aktivierung des Rezeptors, Erhöhung des cytosolischen Ca^2+-Spiegels) (hOR17-40 [2]): als Agonisten wirkende Substanzen
CC(=O)CCc1ccc2c(c1)OCO2 [Heliotropylaceton]		Agonist (Aktivierung des Rezeptors, Erhöhung des cytosolischen Ca^2+-Spiegels) (hOR17-40 [2]): als Agonisten wirkende Substanzen
CC(C)c1ccccc1 [Isopropylbenzol, reference compound]	induzierte keine Rezeptoraktivität	
CC(C=O)Cc1ccc(C(C)(C)C)cc1 (centres unmarked) [Lilial, reference compound]	Fähigkeit der Substanzen, den Rezeptor zu aktivieren	spezifische Bindung [3]: spezifische Bindung; Wirksamkeit (Rangordnung der Agonisten) (hOR17-4): wirksamere Agonisten
Cl.c1ccc(C2CCCC2NC2=NCCCCCCCCCCC2)cc1 (centres unmarked) [MDL-12,330A]		Anteil der bourgeonal-responsiven Spermien, die nicht mehr auf Bourgeonal reagierten (Spermien; missing chemotaxis and missing change of swimming speed): 72%
CCCCCCCC=O [Octanal, reference compound]	nicht aktiviert	Stimulation des Rezeptors (Ratten-I7-Rezeptor): stimuliert
O=CCc1ccccc1 [Phenylacetaldehyd]	deutliche Ca^2+-Signale	
COc1ccc2c(c1)CC[C@@H]1[C@@H]2CC[C@]2(C)[C@@H](NCCCCCCN3C(=O)C=CC3=O)CC[C@@H]12 [U73122]		Änderung des Spermienverhaltens (Spermien): keine Änderung des Spermienverhaltens
Citrusal [reference compound]	nicht aktivierenden	
